Legend:
Brain [1] = assay: Biodistribution in ICR mouse brain at 5 to 10 uCi, iv after 30 mins; format: ADME, organism-based; details: in vivo, 0.5 h
Kidney [2] = assay: Biodistribution in ICR mouse kidney at 5 to 10 uCi, iv after 2 hrs; format: ADME, organism-based; details: in vivo
Heart [3] = assay: Biodistribution in ICR mouse heart at 5 to 10 uCi, iv after 1 hr; format: ADME, organism-based; details: in vivo
Bone [4] = assay: Biodistribution in ICR mouse bone at 5 to 10 uCi, iv after 2 hrs; format: ADME, organism-based, Bone element; details: in vivo
Lung [5] = assay: Biodistribution in ICR mouse lung at 5 to 10 uCi, iv after 2 mins; format: ADME, organism-based; details: in vivo
Brain [6] = assay: Biodistribution in ICR mouse brain at 5 to 10 uCi, iv after 2 mins; format: ADME, organism-based; details: in vivo
Spleen [7] = assay: Biodistribution in ICR mouse spleen at 5 to 10 uCi, iv after 30 mins; format: ADME, organism-based; details: in vivo, 0.5 h
Zone of skin [8] = assay: Biodistribution in ICR mouse skin at 5 to 10 uCi, iv after 2 hrs; format: ADME, organism-based; details: in vivo
Muscle tissue [9] = assay: Biodistribution in ICR mouse muscle at 5 to 10 uCi, iv after 1 hr; format: ADME, organism-based; details: in vivo
Brain [10] = assay: Biodistribution in ICR mouse brain at 5 to 10 uCi, iv after 1 hr; format: ADME, organism-based; details: in vivo
Lung [11] = assay: Biodistribution in ICR mouse lung at 5 to 10 uCi, iv after 1 hr; format: ADME, organism-based; details: in vivo
Liver [12] = assay: Biodistribution in ICR mouse liver at 5 to 10 uCi, iv after 2 mins; format: ADME, organism-based; details: in vivo
Blood [13] = assay: Biodistribution in ICR mouse blood at 5 to 10 uCi, iv after 2 mins; format: ADME, organism-based; details: in vivo
Heart [14] = assay: Biodistribution in ICR mouse heart at 5 to 10 uCi, iv after 30 mins; format: ADME, organism-based; details: in vivo, 0.5 h
Zone of skin [15] = assay: Biodistribution in ICR mouse skin at 5 to 10 uCi, iv after 30 mins; format: ADME, organism-based; details: in vivo, 0.5 h
Bone [16] = assay: Biodistribution in ICR mouse bone at 5 to 10 uCi, iv after 30 mins; format: ADME, organism-based, Bone element; details: in vivo, 0.5 h
Blood [17] = assay: Biodistribution in ICR mouse blood at 5 to 10 uCi, iv after 1 hr; format: ADME, organism-based; details: in vivo
Liver [18] = assay: Biodistribution in ICR mouse liver at 5 to 10 uCi, iv after 30 mins; format: ADME, organism-based; details: in vivo, 0.5 h
Bone [19] = assay: Biodistribution in ICR mouse bone at 5 to 10 uCi, iv after 2 mins; format: ADME, organism-based, Bone element; details: in vivo
Spleen [20] = assay: Biodistribution in ICR mouse spleen at 5 to 10 uCi, iv after 2 hrs; format: ADME, organism-based; details: in vivo
Lung [21] = assay: Biodistribution in ICR mouse lung at 5 to 10 uCi, iv after 2 hrs; format: ADME, organism-based; details: in vivo
Muscle tissue [22] = assay: Biodistribution in ICR mouse muscle at 5 to 10 uCi, iv after 30 mins; format: ADME, organism-based; details: in vivo, 0.5 h
Zone of skin [23] = assay: Biodistribution in ICR mouse skin at 5 to 10 uCi, iv after 2 mins; format: ADME, organism-based; details: in vivo
Liver [24] = assay: Biodistribution in ICR mouse liver at 5 to 10 uCi, iv after 2 hrs; format: ADME, organism-based; details: in vivo
Kidney [25] = assay: Biodistribution in ICR mouse kidney at 5 to 10 uCi, iv after 1 hr; format: ADME, organism-based; details: in vivo
Kidney [26] = assay: Biodistribution in ICR mouse kidney at 5 to 10 uCi, iv after 30 mins; format: ADME, organism-based; details: in vivo, 0.5 h
Brain [27] = assay: Biodistribution in ICR mouse brain at 5 to 10 uCi, iv after 2 hrs; format: ADME, organism-based; details: in vivo
Liver [28] = assay: Biodistribution in ICR mouse liver at 5 to 10 uCi, iv after 1 hr; format: ADME, organism-based; details: in vivo
Muscle tissue [29] = assay: Biodistribution in ICR mouse muscle at 5 to 10 uCi, iv after 2 hrs; format: ADME, organism-based; details: in vivo
Heart [30] = assay: Biodistribution in ICR mouse heart at 5 to 10 uCi, iv after 2 mins; format: ADME, organism-based; details: in vivo
Muscle tissue [31] = assay: Biodistribution in ICR mouse muscle at 5 to 10 uCi, iv after 2 mins; format: ADME, organism-based; details: in vivo
Zone of skin [32] = assay: Biodistribution in ICR mouse skin at 5 to 10 uCi, iv after 1 hr; format: ADME, organism-based; details: in vivo
Heart [33] = assay: Biodistribution in ICR mouse heart at 5 to 10 uCi, iv after 2 hrs; format: ADME, organism-based; details: in vivo
Lung [34] = assay: Biodistribution in ICR mouse lung at 5 to 10 uCi, iv after 30 mins; format: ADME, organism-based; details: in vivo, 0.5 h
[35] = Partition coefficient, log P at pH 7.4; format: physicochemical; details: octanol/water
Spleen [36] = assay: Biodistribution in ICR mouse spleen at 5 to 10 uCi, iv after 1 hr; format: ADME, organism-based; details: in vivo
Kidney [37] = assay: Biodistribution in ICR mouse kidney at 5 to 10 uCi, iv after 2 mins; format: ADME, organism-based; details: in vivo
Blood [38] = assay: Biodistribution in ICR mouse blood at 5 to 10 uCi, iv after 2 hrs; format: ADME, organism-based; details: in vivo
Blood [39] = assay: Biodistribution in ICR mouse blood at 5 to 10 uCi, iv after 30 mins; format: ADME, organism-based; details: in vivo, 0.5 h
Bone [40] = assay: Biodistribution in ICR mouse bone at 5 to 10 uCi, iv after 1 hr; format: ADME, organism-based, Bone element; details: in vivo
Spleen [41] = assay: Biodistribution in ICR mouse spleen at 5 to 10 uCi, iv after 2 mins; format: ADME, organism-based; details: in vivo

CNc1ccc(C#Cc2ccc(OCCOCC[18F])cc2)cc1 gave a Drug uptake (Brain [1]) of 1.03 % ID/g, a Drug uptake (Kidney [2]) of 5.55 % ID/g and a Drug uptake (Heart [3]) of 3.54 % ID/g. The Drug uptake (Bone [4]) was 2.07 % ID/g, the Drug uptake (Lung [5]) was 6.57 % ID/g and the Drug uptake (Brain [6]) was 4.42 % ID/g. For the same compound, the Drug uptake (Spleen [7]) was 3.6 % ID/g, the Drug uptake (Zone of skin [8]) was 2.04 % ID/g and the Drug uptake (Muscle tissue [9]) was 1.38 % ID/g. It also gave a Drug uptake (Brain [10]) of 0.99 % ID/g, a Drug uptake (Lung [11]) of 6.01 % ID/g and a Drug uptake (Liver [12]) of 29.6 % ID/g. It also gave a Drug uptake (Blood [13]) of 7.89 % ID/g, a Drug uptake (Heart [14]) of 2.84 % ID/g and a Drug uptake (Zone of skin [15]) of 2.11 % ID/g. The Drug uptake (Bone [16]) was 1.46 % ID/g, the Drug uptake (Blood [17]) was 10.3 % ID/g and the Drug uptake (Liver [18]) was 18.3 % ID/g. It also gave a Drug uptake (Bone [19]) of 1.54 % ID/g, a Drug uptake (Spleen [20]) of 3.3 % ID/g and a Drug uptake (Lung [21]) of 4.67 % ID/g. The Drug uptake (Muscle tissue [22]) was 1.26 % ID/g, the Drug uptake (Zone of skin [23]) was 0.94 % ID/g and the Drug uptake (Liver [24]) was 11.7 % ID/g. For the same compound, the Drug uptake (Kidney [25]) was 6.17 % ID/g, the Drug uptake (Kidney [26]) was 4.78 % ID/g and the Drug uptake (Brain [27]) was 0.82 % ID/g. For the same compound, the Drug uptake (Liver [28]) was 15.6 % ID/g, the Drug uptake (Muscle tissue [29]) was 1.26 % ID/g and the Drug uptake (Heart [30]) was 4.73 % ID/g. For the same compound, the Drug uptake (Muscle tissue [31]) was 0.79 % ID/g, the Drug uptake (Zone of skin [32]) was 2.55 % ID/g and the Drug uptake (Heart [33]) was 2.6 % ID/g. The Drug uptake (Lung [34]) was 4.77 % ID/g, the logD [35] was 3.48 and the Drug uptake (Spleen [36]) was 3.78 % ID/g. For the same compound, the Drug uptake (Kidney [37]) was 5.55 % ID/g, the Drug uptake (Blood [38]) was 7.84 % ID/g and the Drug uptake (Blood [39]) was 7.9 % ID/g. For the same compound, the Drug uptake (Bone [40]) was 1.92 % ID/g and the Drug uptake (Spleen [41]) was 3.74 % ID/g.
